Experimental data as given in publication PMC6314830 (Science Advances, 2019).

Test system: mouse skin
Experiment: Topical application to uninfected mouse skin
Type: in vivo
Conditions: repeated daily topical treatments of the skin

CC[C@H](C)[C@H](N)C(=O)N[C@@H](CC(N)=O)C(=O)N[C@@H](CC(C)C)C(=O)N[C@@H](CCCCN)C(=O)N[C@@H](C)C(=O)N[C@@H](CC(C)C)C(=O)N[C@@H](C)C(=O)N[C@@H](C)C(=O)N[C@@H](CC(C)C)C(=O)N[C@@H](C)C(=O)N[C@@H](CCCCN)C(=O)N[C@@H](CCCCN)C(=O)N[C@H](C(=O)N[C@@H](CC(C)C)C(=O)O)[C@@H](C)CC [Mastoparan]
Local or systemic adverse effects: did not observe any local or systemic adverse effects
